# Results: patent US20240165247A1, “NEW PEPTIDE CONJUGATES” (JIANGYIN USUN PHARMACEUTICAL CO., LTD., priority 2021, published 2024)
# Test system: dental ulcer of the patient
# Assay: Dental treatment: solution sprayed onto dental ulcer of a patient, pain relief
# Assay type: in vivo, human
# Conditions: 1 mg/mL solution in normal saline
# Description: A 1 mg/mL solution of the title compound of Example 1 was prepared in normal saline.
# The resultant solution was sprayed using a standard spray device onto the dental ulcer of the patient. Pain relief occurred within 1 minute. The duration of pain relief was about 3 hours.
substance,measurement,value
Ala-Lys-Pro-Ser-Tyr-Hyp-Thr-Tyr-Hyp-Lys-Procaine [Example 1],Duration of pain relief,about 3 hours
same,Time to occurrence of pain relief,≤ 1 min
